Drawing on ChEMBL document CHEMBL1287691, “Pyrazole derivatives from azines of substituted phenacyl aryl/cyclohexyl sulfides and their antimycobacterial activity” (2010), this text covers inhibition and MIC for 26 compounds.

A word on the inhibition: it is the change of the read-out against control, counted positive when it falls. The low end stands for a response near the control, the high end for a response far below the control. As usually defined, the MIC is the smallest concentration in the dilution series that meets the test's criterion for growth inhibition. Read a low MIC as greater potency.

≈ marks a conversion by molar mass, not a printed value.

The test system of one test is Mycobacterium tuberculosis. Description: Antimycobacterial activity against Mycobacterium tuberculosis H37Rv at 6.25 ug/ml. The test is classed as functional.
The compound `CC(=O)/C(=N/Nc1c(C)n[nH]c1C)C(=O)O` returned an inhibition at 6.25 µg/mL of 29%.

With `COCC(=O)/C(=N/Nc1c(C)n[nH]c1C)C(=O)OC`, the inhibition at 6.25 µg/mL stood at 28%.

The test system of a further test is Mycobacterium tuberculosis. The experiment in a line: Antimycobacterial activity against Mycobacterium tuberculosis H37Rv by agar dilution method. Type of test: functional.
The compound `Clc1ccc(S/C=C(\c2ccc3ccccc3c2)n2cc(Sc3ccc(Cl)cc3)c(-c3ccc4ccccc4c3)n2)cc1` displayed an MIC of 6.25 µg/mL (≈ 9.89 µM).

The compound `Clc1ccc(S/C=C(/c2ccc3ccccc3c2)n2cc(Sc3ccc(Cl)cc3)c(-c3ccc4ccccc4c3)n2)cc1` came in with an MIC of 12.5 µg/mL (≈ 19.8 µM).

In turn, `Clc1ccc(S/C=C(/c2ccc(Cl)cc2)n2cc(Sc3ccc(Cl)cc3)c(-c3ccc(Cl)cc3)n2)cc1` yielded an MIC of 3.13 µg/mL (≈ 5.21 µM).

Turning to `Clc1ccc(S/C=C(/c2ccccc2)n2cc(Sc3ccc(Cl)cc3)c(-c3ccccc3)n2)cc1`, the minimum inhibitory concentration (MIC) was > 25 µg/mL.

Consider `C(/SC1CCCCC1)=C(\c1ccccc1)n1cc(SC2CCCCC2)c(-c2ccccc2)n1`, for which it took 12.5 µg/mL (≈ 26.3 µM) to inhibit growth (MIC).

Consider `Cc1ccc(/C(=C/SC2CCCCC2)n2cc(SC3CCCCC3)c(-c3ccc(C)cc3)n2)cc1`, for which the MIC was 6.25 µg/mL (≈ 12.4 µM).

In the case of `COc1ccc(/C(=C/SC2CCCCC2)n2cc(SC3CCCCC3)c(-c3ccc(OC)cc3)n2)cc1`, the MIC is 12.5 µg/mL (≈ 23.4 µM).

Turning to `O=[N+]([O-])c1ccc(/C(=C/SC2CCCCC2)n2cc(SC3CCCCC3)c(-c3ccc([N+](=O)[O-])cc3)n2)cc1`, the lowest concentration to inhibit growth (MIC) was 1.56 µg/mL (≈ 2.76 µM).

In the case of `Clc1ccc(S/C=C(\c2ccc(Cl)cc2)n2cc(Sc3ccc(Cl)cc3)c(-c3ccc(Cl)cc3)n2)cc1`, 1.56 µg/mL (≈ 2.6 µM) was the least that counted as inhibitory (MIC).

In the case of `COc1ccc(/C(=C\Sc2ccc(Cl)cc2)n2cc(Sc3ccc(Cl)cc3)c(-c3ccc(OC)cc3)n2)cc1`, the lowest concentration to inhibit growth (MIC) was 6.25 µg/mL (≈ 10.6 µM). Against the preceding compound, the MIC is about 4-fold higher.

On to `Clc1ccc(S/C=C(\c2ccccc2)n2cc(Sc3ccc(Cl)cc3)c(-c3ccccc3)n2)cc1`, for which the lowest concentration to inhibit growth (MIC) was 12.5 µg/mL (≈ 23.5 µM).

`Cc1ccc(/C(=C\Sc2ccc(Cl)cc2)n2cc(Sc3ccc(Cl)cc3)c(-c3ccc(C)cc3)n2)cc1`: the minimal inhibitory concentration (MIC) came to 6.25 µg/mL (≈ 11.2 µM). This MIC is about 2-fold lower than that of the compound before.

Take `Cc1ccc(S/C=C(\c2ccc(Cl)cc2)n2cc(Sc3ccc(C)cc3)c(-c3ccc(Cl)cc3)n2)cc1`: the lowest concentration to inhibit growth (MIC) was 12.5 µg/mL (≈ 22.3 µM). Compared with the last compound, the MIC is about 2-fold higher.

`Clc1ccc(/C(=C\Sc2ccccc2)n2cc(Sc3ccccc3)c(-c3ccc(Cl)cc3)n2)cc1` had an MIC of 25 µg/mL (≈ 47 µM).

In turn, `C(/SC1CCCCC1)=C(/c1ccccc1)n1cc(SC2CCCCC2)c(-c2ccccc2)n1` gave an MIC of 6.25 µg/mL (≈ 13.2 µM).

As for `Cc1ccc(/C(=C\SC2CCCCC2)n2cc(SC3CCCCC3)c(-c3ccc(C)cc3)n2)cc1`, 3.13 µg/mL (≈ 6.23 µM) was the least that counted as inhibitory (MIC).

In turn, `COc1ccc(/C(=C\SC2CCCCC2)n2cc(SC3CCCCC3)c(-c3ccc(OC)cc3)n2)cc1` had a minimal inhibitory concentration (MIC) of 3.13 µg/mL (≈ 5.85 µM).

On to `Clc1ccc(/C(=C\SC2CCCCC2)n2cc(SC3CCCCC3)c(-c3ccc(Cl)cc3)n2)cc1`, for which the MIC was 1.56 µg/mL (≈ 2.87 µM).

In turn, `O=[N+]([O-])c1ccc(/C(=C\SC2CCCCC2)n2cc(SC3CCCCC3)c(-c3ccc([N+](=O)[O-])cc3)n2)cc1` came in with an MIC of 0.78 µg/mL (≈ 1.38 µM).

As to `Clc1ccc(/C(=C/Sc2ccccc2)n2cc(Sc3ccccc3)c(-c3ccc(Cl)cc3)n2)cc1`, the minimum inhibitory concentration (MIC) is > 25 µg/mL.

The compound `Cc1ccc(S/C=C(/c2ccc(Cl)cc2)n2cc(Sc3ccc(C)cc3)c(-c3ccc(Cl)cc3)n2)cc1` yielded an MIC of 12.5 µg/mL (≈ 22.3 µM).

Compound `CC[C@@H](CO)NCCN[C@@H](CC)CO` [ETHAMBUTOL] returned an MIC of 1.56 µg/mL (≈ 7.64 µM).

Turning to `NNC(=O)c1ccncc1` [ISONIAZID], the MIC was 0.05 µg/mL (≈ 0.365 µM).

`NC(=O)c1cnccn1` [PYRAZINAMIDE] came in with an MIC of 6.25 µg/mL (≈ 50.8 µM).
